Source: paper PMC11859184, “Synthesis and Evaluation of ^68Ga- and ^177Lu-Labeled [diF-Pro^14]Bombesin(6−14) Analogs for Detection and Radioligand Therapy of Gastrin-Releasing Peptide Receptor-Expressing Cancer” (Pharmaceuticals, 2025)
Like-named read-outs stand apart in the source and are kept apart here.

Assay: Ex vivo biodistribution of 177Lu-labeled ligands in PC-3 tumor-bearing mice
Details: mouse; for tissue to tissue ratio at 1 h / tissue uptake at 1 h: 1 h pi; for tissue to tissue ratio at 4 h / tissue uptake at 4 h: 4 h pi; for tissue to tissue ratio at 24 h / tissue uptake at 24 h: 24 h pi; for tissue to tissue ratio at 120 h / tissue uptake at 120 h: 120 h pi; for tissue uptake at 1 h / tissue uptake at 4 h / tissue uptake at 24 h / tissue uptake at 72 h / tissue uptake at 120 h: intravenous
Method: SPECT/CT imaging was conducted using an MI Labs (Houten, The Netherlands) U-SPECT-II/CT scanner with a custom-made ultra-high sensitivity big mouse collimator (2 mm pinhole size) following published procedure. The experiments were obtained in accordance with the same protocol established in the PET/CT imaging and ex vivo biodistributions section. The mice were used for SPECT/CT imaging and ex vivo biodistributions studies once the tumors reached a diameter of 5–8 mm. PC-3 tumor-bearing mice were sedated (2.5% isoflurane in O2) and injected with 31.4–36.9 MBq of the ^177Lu-labeled ligand through a lateral caudal tail vein. The mouse was imaged at 1, 4, 24, 72, and 120 h pi. At each time point, a 5 min CT scan was performed with 615 μA and 60 kV parameters for localization and attenuation, followed by two 30 min static SPECT scans in list mode with an energy window centered around 208 keV. The U-SPECT II software was used to reconstruct data, and the images were decay corrected to the time of injection with PMOD v 3.402 (PMOD Technologies GmbH, Fallanden, Switzerland).
For ex vivo biodistribution studies, the mice were injected with ~3–5 MBq of the ^177Lu-labeled ligand (n = 5). At 1, 4, 24, 72, and 120 h post-injection, the mice were anesthetized with 2% isoflurane, euthanized by CO2 inhalation, and the tissues/organs of interest were […] for radioactivity counting. The blocking study was performed at 1 h pi via co-injection of the ^177Lu-labeled ligand with 100 μg of [D-Phe^6,Leu-NHEt^13,des-Met^14]Bombesin(6–14).

[1] = male, NOD.Cg-Rag1^tm1Mom Il2rg^tm1Wjl/SzJ (NRG), tumor/blood, iv, total radioactivity, n = 5, read-out: Tumor/blood uptake ratio
[2] = male, NOD.Cg-Rag1^tm1Mom Il2rg^tm1Wjl/SzJ (NRG), tumor/kidney, iv, total radioactivity, n = 5, read-out: Tumor/kidney uptake ratio
[3] = male, NOD.Cg-Rag1^tm1Mom Il2rg^tm1Wjl/SzJ (NRG), tumor/muscle, iv, total radioactivity, n = 5, read-out: Tumor/muscle uptake ratio
[4] = male, NOD.Cg-Rag1^tm1Mom Il2rg^tm1Wjl/SzJ (NRG), tumor/pancreas, iv, total radioactivity, n = 5, read-out: Tumor/pancreas uptake ratio
[5] = PC-3 tumor, n = 5, read-out: PC-3 tumor uptake
[6] = adrenal glands, n = 5, read-out: Adrenal glands uptake
[7] = blood, n = 5, read-out: Blood uptake
[8] = bone, n = 5, read-out: Bone uptake
[9] = brain, n = 5, read-out: Brain uptake
[10] = fat, n = 5, read-out: Fat uptake
[11] = heart, n = 5, read-out: Heart uptake

CC(C)C[C@H](NC(=O)[C@H](Cc1cnc[nH]1)N(C)C(=O)CNC(=O)[C@@H](NC(=O)[C@H](C)NC(=O)[C@H](Cc1c[nH]c2ccccc12)NC(=O)[C@H](CCC(N)=O)NC(=O)[C@@H](Cc1ccccc1)NC(=O)CN1CCC(NC(=O)CN2CCN(CC(=O)O)CCN(CC(=O)O)CCN(CC(=O)O)CC2)CC1)C(C)(C)C)C(=O)N1CC(F)(F)C[C@H]1C(N)=O [[^177Lu]Lu-LW02060, metal not drawn]
tissue uptake (male, NOD.Cg-Rag1^tm1Mom Il2rg^tm1Wjl/SzJ (NRG), iv, total radioactivity, all time points, read-out: uptake in all other collected organs/tissues (other than tumor, pancreas, kidney)): < 1 %ID/g | tissue to tissue ratio at 1 h (male, NOD.Cg-Rag1^tm1Mom Il2rg^tm1Wjl/SzJ (NRG), tumor/blood, iv, total radioactivity, blocked (100 µg GRPR antagonist co-injected), read-out: Tumor/blood uptake ratio): 6.37 ± 1.92 | tissue to tissue ratio at 1 h [1]: 16.1 ± 2.2 | tissue to tissue ratio at 4 h [1]: 144 ± 33.5 | tissue to tissue ratio at 24 h [1]: 813 ± 203 | tissue to tissue ratio at 72 h (male, NOD.Cg-Rag1^tm1Mom Il2rg^tm1Wjl/SzJ (NRG), tumor/blood, iv, total radioactivity, 72 h pi, n = 5, read-out: Tumor/blood uptake ratio): 1120 ± 440 | tissue to tissue ratio at 120 h [1]: 1630 ± 548 | tissue to tissue ratio at 1 h (male, NOD.Cg-Rag1^tm1Mom Il2rg^tm1Wjl/SzJ (NRG), tumor/kidney, iv, total radioactivity, blocked (100 µg GRPR antagonist co-injected), read-out: Tumor/kidney uptake ratio): 0.89 ± 0.22 | tissue to tissue ratio at 1 h [2]: 2.65 ± 0.64 | tissue to tissue ratio at 4 h [2]: 2.96 ± 0.3 | tissue to tissue ratio at 24 h [2]: 5.67 ± 1.43 | tissue to tissue ratio at 72 h (male, NOD.Cg-Rag1^tm1Mom Il2rg^tm1Wjl/SzJ (NRG), tumor/kidney, iv, total radioactivity, 72 h pi, n = 5, read-out: Tumor/kidney uptake ratio): 8.43 ± 2.89 | tissue to tissue ratio at 120 h [2]: 14.1 ± 4.53 | tissue to tissue ratio at 1 h (male, NOD.Cg-Rag1^tm1Mom Il2rg^tm1Wjl/SzJ (NRG), tumor/muscle, iv, total radioactivity, blocked (100 µg GRPR antagonist co-injected), read-out: Tumor/muscle uptake ratio): 23.2 ± 5.2 | tissue to tissue ratio at 1 h [3]: 78.3 ± 13 | tissue to tissue ratio at 4 h [3]: 196 ± 53.1 | tissue to tissue ratio at 24 h [3]: 520 ± 113 | tissue to tissue ratio at 72 h (male, NOD.Cg-Rag1^tm1Mom Il2rg^tm1Wjl/SzJ (NRG), tumor/muscle, iv, total radioactivity, 72 h pi, n = 5, read-out: Tumor/muscle uptake ratio): 522 ± 189 | tissue to tissue ratio at 120 h [3]: 744 ± 179 | tissue to tissue ratio at 1 h (male, NOD.Cg-Rag1^tm1Mom Il2rg^tm1Wjl/SzJ (NRG), tumor/pancreas, iv, total radioactivity, blocked (100 µg GRPR antagonist co-injected), read-out: Tumor/pancreas uptake ratio): 6.72 ± 2.24 | tissue to tissue ratio at 1 h [4]: 3.57 ± 0.42 | tissue to tissue ratio at 4 h [4]: 4.91 ± 0.14 | tissue to tissue ratio at 24 h [4]: 5.7 ± 0.81 | tissue to tissue ratio at 72 h (male, NOD.Cg-Rag1^tm1Mom Il2rg^tm1Wjl/SzJ (NRG), tumor/pancreas, iv, total radioactivity, 72 h pi, n = 5, read-out: Tumor/pancreas uptake ratio): 8.37 ± 3.35 | tissue to tissue ratio at 120 h [4]: 17.1 ± 2.1 | tissue uptake at 1 h (PC-3 tumor, 100 ug, blocked (100 µg GRPR antagonist co-injected), read-out: PC-3 tumor uptake): 3.25 ± 0.44 %ID/g | tissue uptake at 1 h [5]: 9.59 ± 3.37 %ID/g | tissue uptake at 4 h [5]: 8.38 ± 0.19 %ID/g | tissue uptake at 24 h [5]: 5.78 ± 0.4 %ID/g | tissue uptake at 72 h (PC-3 tumor, 72 h pi, n = 5, read-out: PC-3 tumor uptake): 2.74 ± 0.85 %ID/g | tissue uptake at 120 h [5]: 2.19 ± 0.59 %ID/g | tissue uptake at 72 h (PC-3 tumor, after 72 h pi, read-out: tumor uptake): < 3 %ID/g | tissue uptake at 1 h (adrenal glands, 100 ug, blocked (100 µg GRPR antagonist co-injected), read-out: Adrenal glands uptake): 0.27 ± 0.06 %ID/g | tissue uptake at 1 h [6]: 0.46 ± 0.15 %ID/g | tissue uptake at 4 h [6]: 0.33 ± 0.15 %ID/g | tissue uptake at 24 h [6]: 0.36 ± 0.3 %ID/g | tissue uptake at 72 h (adrenal glands, 72 h pi, n = 5, read-out: Adrenal glands uptake): 0.13 ± 0.07 %ID/g | tissue uptake at 120 h [6]: 0.1 ± 0.02 %ID/g | tissue uptake at 1 h (blood, 100 ug, blocked (100 µg GRPR antagonist co-injected), read-out: Blood uptake): 0.43 ± 0.23 %ID/g | tissue uptake at 1 h [7]: 0.59 ± 0.18 %ID/g | tissue uptake at 4 h [7]: 0.06 ± 0.02 %ID/g | tissue uptake at 24 h [7]: 0.01 %ID/g | tissue uptake at 1 h (bone, 100 ug, blocked (100 µg GRPR antagonist co-injected), read-out: Bone uptake): 0.12 ± 0.04 %ID/g | tissue uptake at 1 h [8]: 0.23 ± 0.06 %ID/g | tissue uptake at 4 h [8]: 0.1 ± 0.08 %ID/g | tissue uptake at 24 h [8]: 0.02 ± 0.01 %ID/g | tissue uptake at 72 h (bone, 72 h pi, n = 5, read-out: Bone uptake): 0.02 %ID/g | tissue uptake at 120 h [8]: 0.02 %ID/g | tissue uptake at 1 h (brain, 100 ug, blocked (100 µg GRPR antagonist co-injected), read-out: Brain uptake): 0.02 ± 0.01 %ID/g | tissue uptake at 1 h [9]: 0.02 ± 0.01 %ID/g | tissue uptake at 4 h [9]: 0.01 %ID/g | tissue uptake at 1 h (fat, 100 ug, blocked (100 µg GRPR antagonist co-injected), read-out: Fat uptake): 0.06 ± 0.03 %ID/g | tissue uptake at 1 h [10]: 0.08 ± 0.02 %ID/g | tissue uptake at 4 h [10]: 0.02 ± 0.01 %ID/g | tissue uptake at 24 h [10]: 0.01 %ID/g | tissue uptake at 120 h [10]: 0.01 ± 0.01 %ID/g | tissue uptake at 1 h (heart, 100 ug, blocked (100 µg GRPR antagonist co-injected), read-out: Heart uptake): 0.13 ± 0.05 %ID/g | tissue uptake at 1 h [11]: 0.19 ± 0.05 %ID/g | tissue uptake at 4 h [11]: 0.06 ± 0.02 %ID/g | tissue uptake at 24 h [11]: 0.02 %ID/g
